Here are results for 6 molecules from patent US9238056B2, “Cyclic peptide and conjugate thereof for binding to keratinocytes” (LEO PHARMA A/S, priority 2011, dated 2016).

One data set concerns HaCat cells. Particulars: cited from earlier work.
In data set [1] the test system is Adult human epidermal keratinocytes (HEKa). Put plainly: Cathelicidin (CAMP) expression by qPCR in keratinocytes incubated with calcipotriol-loaded liposomes. The class given is cell-based. Particulars: 10^−7 M calcipotriol, 1 h at 37° C. then 24 h, versus placebo RKK12-conjugated liposomes, FIG. 6. How it is done: Adult human epidermal keratinocytes (HEKa) were obtained from Cascade Biologics (Portland, Oreg., USA) and cultured in EpiLife Medium (Cascade Biologics) containing human keratinocyte growth supplement and gentamicin/Amphotericin B (Cascade Biologics) at 37° C. in a humidified atmosphere with 5% CO2. For the cell interaction assay, 2×10^5 exponentially growing keratinocytes were seeded one day prior to treatment. On the following day (at 80% confluency), the medium was renewed, and the cell culture media was supplied with 15 μl of liposome suspension for a final concentration of 10^−7 M calcipotriol in the well, 15 μl placebo liposomal suspension, or calcipotriol in 0.1% DMSO solution for a final concentration of 10^−7 M and incubated 1 h at 37° C. The liposomes were conjugated with either the RKK12-peptide or the AKK12-peptide. After 1 h, the cells were washed three times with PBS supplemented with 1% BSA, and 1.5 ml media was added followed by incubation for 24 h at 37° C. Subsequently, the medium was removed, and mRNA was extracted using the RNeasy kit from Quiagen (Hilden, Germany). […] The relative change in the expression of CAMP was quantified using the comparative CT method (2^−ΔΔCt)(K. J. Livak and T. D. Schmittgen, Methods 25, 2001, pp. 402-408).
A general note: Quantitative PCR measures a nucleic acid by following its amplification.

The next data set has as its target T1, integrin α2β1 receptor (Homo sapiens, UniProt P17301).
T1 sequence (P17301 153-368 limits assumed): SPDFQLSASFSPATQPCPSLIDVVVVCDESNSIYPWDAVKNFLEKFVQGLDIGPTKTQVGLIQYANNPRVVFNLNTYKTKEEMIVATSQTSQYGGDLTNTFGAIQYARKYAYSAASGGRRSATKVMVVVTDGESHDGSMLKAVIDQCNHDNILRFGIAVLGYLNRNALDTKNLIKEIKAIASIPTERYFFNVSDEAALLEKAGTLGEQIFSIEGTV
Conditions: cyclic peptide: in the presence of 2 mM MgCl2; cited from earlier work.

Data set [2] relates to A431 cells. Put plainly: Cellular internalization of DiD-labeled peptide-conjugated liposomes at 37° C. (flow cytometry). The class given is cell-based, human. Conditions: 1 hour at 37° C., FIG. 4. The protocol: (§1) Human epidermal carcinoma cells A431 were subcultured in Dulbecco's modified Eagle's medium (DMEM) containing 3.7 g/l sodium bicarbonate and 4.5 g/l glucose, supplemented with antimicrobial agents, 2 mM L-glutamine and 7.5% (v/v) fetal bovine serum, at 37° C. in a humidified atmosphere containing 5% CO2. Nearly confluent mono-layers of A431 cells were washed with PBS and cells were detached using 1 mM tris-EDTA in PBS. The cells were subsequently suspended in cold PBS supplemented with 1.26 mM CaCl2 and 0.81 mM MgSO4 at 4° C. The cells were counted after centrifugation and 10^5 cells in 100 μl media were incubated with 100 μl liposomes diluted in PBS supplemented with 1.26 mM CaCl and 0.81 mM MgSO4, different concentrations of DiD-labeled liposomes (10-200 nmol total lipid), RKK12-conjugated liposomes (RKK12-liposomes) or AKK12-coupled liposomes (AKK12-liposomes) for 1 h at 4° C.
(§2) In the cellular internalization of liposomes experiment, similar different concentrations of DiD-labeled liposomes (10-200 nmol total lipid) RKK12-liposomes were incubated for 1 hour at 37° C. […] At the end of the incubation period, cells were washed three times in the 5% BSA supplemented PBS-buffer at 4° C., and resuspended in 200 μl PBS supplied with 5% BSA after which they were analyzed on a FACScalibur flow cytometer (Becton-Dickinson). […]

The test system of data set [3] is A431 cells. Put plainly: Binding of DiD-labeled peptide-conjugated liposomes to A431 cells at 4° C. (flow cytometry). The class given is cell-based, human. The protocol: as §1, §2
(A flow cytometer gives signals particle by particle.)

Data set [4] concerns the target T2, integrin α2β1 receptor on the surface of A431 human epidermal carcinoma cells (human, UniProt P17301 30-1181; P05556 21-798).
T2 construct: whole, on cells; Endogenous receptor on A431 cells; also called human integrin α2β1 receptor
The data set is described as follows: flow cytometry, DiD-labeled peptide-conjugated liposomes on A431 cells at 4° C.

Bridge positions count the residues as written; N and C are the ends. Ends that are not written are not given here. * marks the point of attachment. Acetylthioacetyl = CC(=O)SCC(=O)*

T2 sequence (P17301 30-1181, chain 1 of 2): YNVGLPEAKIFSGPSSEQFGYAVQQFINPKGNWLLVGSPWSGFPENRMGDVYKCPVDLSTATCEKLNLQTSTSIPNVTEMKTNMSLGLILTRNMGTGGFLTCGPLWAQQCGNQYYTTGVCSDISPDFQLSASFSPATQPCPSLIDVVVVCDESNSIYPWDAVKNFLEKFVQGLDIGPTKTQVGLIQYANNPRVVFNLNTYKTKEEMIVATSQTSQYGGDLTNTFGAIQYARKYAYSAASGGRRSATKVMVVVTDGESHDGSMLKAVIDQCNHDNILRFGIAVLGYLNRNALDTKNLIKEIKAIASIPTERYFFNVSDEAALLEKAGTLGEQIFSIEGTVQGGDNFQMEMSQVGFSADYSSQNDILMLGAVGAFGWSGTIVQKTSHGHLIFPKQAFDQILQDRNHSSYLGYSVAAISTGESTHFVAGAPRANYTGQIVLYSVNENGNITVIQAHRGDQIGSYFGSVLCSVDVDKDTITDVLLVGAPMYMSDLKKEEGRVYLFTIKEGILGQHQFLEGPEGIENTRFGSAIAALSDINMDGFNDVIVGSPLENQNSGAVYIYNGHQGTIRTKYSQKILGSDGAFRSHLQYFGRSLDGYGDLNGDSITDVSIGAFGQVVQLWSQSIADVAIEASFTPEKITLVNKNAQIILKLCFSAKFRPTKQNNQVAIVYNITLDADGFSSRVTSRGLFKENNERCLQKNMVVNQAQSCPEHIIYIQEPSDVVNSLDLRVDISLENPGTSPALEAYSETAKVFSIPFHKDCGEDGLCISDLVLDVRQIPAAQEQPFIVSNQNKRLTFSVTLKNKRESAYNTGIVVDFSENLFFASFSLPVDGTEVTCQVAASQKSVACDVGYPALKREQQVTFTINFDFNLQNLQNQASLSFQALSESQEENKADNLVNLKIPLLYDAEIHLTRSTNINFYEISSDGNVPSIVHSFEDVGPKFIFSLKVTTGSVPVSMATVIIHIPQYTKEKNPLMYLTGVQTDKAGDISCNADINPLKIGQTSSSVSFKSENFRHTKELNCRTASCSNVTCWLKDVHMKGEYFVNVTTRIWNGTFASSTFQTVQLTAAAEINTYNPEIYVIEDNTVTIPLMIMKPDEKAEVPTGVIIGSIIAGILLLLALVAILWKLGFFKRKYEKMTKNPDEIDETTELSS
T2 sequence (P05556 21-798, chain 2 of 2): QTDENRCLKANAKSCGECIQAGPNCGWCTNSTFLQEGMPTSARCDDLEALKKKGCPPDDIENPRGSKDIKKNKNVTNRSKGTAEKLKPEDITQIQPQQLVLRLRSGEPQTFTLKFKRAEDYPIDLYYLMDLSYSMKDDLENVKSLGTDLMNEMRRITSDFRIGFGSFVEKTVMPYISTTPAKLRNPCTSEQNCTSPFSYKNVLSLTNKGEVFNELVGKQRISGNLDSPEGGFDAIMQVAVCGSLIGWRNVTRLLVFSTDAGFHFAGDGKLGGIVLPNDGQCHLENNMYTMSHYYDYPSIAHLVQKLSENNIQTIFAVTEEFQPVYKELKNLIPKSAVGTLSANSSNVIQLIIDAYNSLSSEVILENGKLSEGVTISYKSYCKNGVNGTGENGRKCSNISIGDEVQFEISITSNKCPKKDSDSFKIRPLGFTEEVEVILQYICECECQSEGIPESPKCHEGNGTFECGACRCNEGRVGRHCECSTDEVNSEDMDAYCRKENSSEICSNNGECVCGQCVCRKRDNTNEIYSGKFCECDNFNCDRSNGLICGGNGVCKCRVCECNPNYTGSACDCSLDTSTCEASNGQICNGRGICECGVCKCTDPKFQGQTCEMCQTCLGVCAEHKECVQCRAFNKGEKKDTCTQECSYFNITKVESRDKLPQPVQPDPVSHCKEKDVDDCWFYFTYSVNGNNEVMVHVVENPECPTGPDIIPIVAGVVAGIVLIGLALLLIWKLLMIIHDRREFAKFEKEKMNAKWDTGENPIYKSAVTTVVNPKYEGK

Regarding `C=C1/C(=C\C=C2/CCC[C@]3(C)[C@@H]([C@H](C)/C=C/[C@@H](O)C4CC4)CC[C@@H]23)C[C@@H](O)C[C@@H]1O` [calcipotriol], the levels of cathelicidin entry in the data set with HaCat cells is listed as “Increased levels”.

Consider “AKK12-conjugated liposomes: calcipotriol-loaded liposomes conjugated with the control peptide AKK12 (cyclo(KHDNRQSK(Acetylthioacetyl)STAK); not fully specified)”, for which the “expression of cathelicidin (CAMP) normalized to GAPDH” value in data set [1] is on record as “no significant difference between the formulations”.

For the molecule “C^241TRKKHDNAQ^249C: nine amino acid long cyclic peptide with RKK motif derived from jararhagin (Ivaska et al.) (CTRKKHDNAQC; disulfide 1-11)”, the “inhibition of collagen I interaction with the integrin α2β1 receptor” value with integrin α2β1 receptor is “inhibit the interaction”.

“RKK12-liposomes: DiD-labeled liposomes (DSPC, PEG2000-DSPE, Mal-PEG2000-DSPE, cholesterol) conjugated with RKK12 peptide (cyclo(KHDNAQSK(Acetylthioacetyl)STRK); also: conjugated to DiD-labeled liposomes)”: the “internalization (cellular uptake) of liposomes” value in the data set with A431 cells [2] is recorded as “highest”. In addition, the “association of liposomes at low Mg2+ concentrations, versus AKK12-conjugated liposomes” value with A431 cells [3] (4° C., PBS not supplied with CaCl2 or MgSO4, FIG. 5) is given as “only slightly higher”. In addition, the “fluorescence of cells (association of liposomes)” value in the data set with A431 cells [3] (1 h at 4° C., PBS with 1.26 mM CaCl2 and 0.81 mM MgSO4, 10-200 nmol total lipid, FIG. 3) is reported as “significantly more fluorescent”.

B1: AKK12 head-to-tail cyclized control peptide H-KHDNRQS-(SATA)KSTAK-OH, conjugated to DiD-labeled liposomes (peptide)
peptide: cyclo(KHDNRQSKSTAK)
modifications: not fully specified (residue 8)
notes: Control peptide with similar charge as RKK12 but without the RKK motif (Arg and Ala exchanged); tested only as a liposome conjugate; also called AKK12-peptide; AKK12-liposomes
For B1, in data set [4], the binding result is “binds”.

B2: RKK12 head-to-tail cyclized targeting peptide H-KHDNAQS-(SATA)KSTRK-OH, conjugated to DiD-labeled liposomes (peptide)
peptide: cyclo(KHDNAQSKSTRK)
modifications: not fully specified (residue 8)
notes: Synthetic cyclic peptide; tested only as a conjugate on the surface of DiD-labeled PEGylated liposomes, so many copies per particle; also called RKK12-peptide; RKK-12 peptide
With B2, the binding result in data set [4] is “binds”.
